# Columns and labels:
# [1] = test system: glycine site coupled to the NMDA ionophor complex; details: literature, in words; cited from earlier work
# [2] = biological target: T1, glycine site of the NMDA receptor complex (Rattus norvegicus, UniProt P35439); test: Antagonism of glycine enhanced [3H]-MK-801 binding (Test 2); details: dissociation constant of receptor-antagonist complex, Schild analysis; rat cerebral membrane homogenate, pH 7.40, 23° C., 60 min, 1 nM [3H]-MK-801, 300 nM glutamate
# T1 construct: thawed rat cerebral cortical membrane homogenate; from tissue; host or cells: rat cerebral cortical membrane homogenate
# Protocol: The glycine antagonism is measured by determining the Ki value which represents the dissociation constant (μM) of the receptor-antagonist complex.
# Antagonism enhanced [^3 H]-MK-801 binding (Test 2)
# 1 ml of thawed and extensively washed rat cerebral membrane homogenate in HEPES-NaOH (20 mM) pH 7.40 were incubated at 23° C. for 60 min. with 25μl[^3 H]-MK-801 (1 nM final concentration), 25 μl glutamate (300 nM final concentration), test compound in concentrations corresponding to 0, 0.5, 2 and 5 times the IC50 value from the [^3 H]-glycine binding assay (test 1) for each concentration of glycine (10; 100; 1,000; 10,000 and 100,000 nM final concentration). The binding reaction was terminated by adding 5 ml of ice- cold buffer followed by rapid filtration through Whatman GF/C glass fiber filters and 5 ml wash with ice-cold buffer. Bound radioactivity was measured by scintillation counting. Ki values were determined by Schild analysis of the data using
# log(dosis ration-1)=log[Inhibitor]-log(Ki)
# [3] = biological target: T1, glycine site of the NMDA receptor complex; test: [3H]-glycine binding (Test 1); details: displacement of 50% of specific [3H]-glycine binding; rat cerebral cortical membrane homogenate, pH 7.1, 0° C., 10 min
# Protocol: The glycine site binding activity of these compounds of the present invention can be illustrated by determining their capability for displacing radioactively labelled glycine from the glycine site.
# The displacement activity of the compounds may be shown by determining the IC50 value which represents the concentration (μM) which causes a displacement of 50% of the specific binding of [^3 H]-glycine.
# ^3 H]-glycine binding (Test 1)
# 1 ml of thawed rat cerebral cortical membrane homogenate in HEPES-Tris (5 mM) and MgCl2 (1 mM) pH 7.1 were incubated at 0° C. for 10 min. with […] and the test compound and buffer. Non-specific binding was determined by incubating with D-serine (1 mM final concentration). The binding reaction was terminated by centrifugation at 15,000 ×g at 4° C. followed by washing of the pellet with three times 3 ml of ice-cold buffer. Bound radioactivity was measured by scintillation counting. IC50 was determined by Hill analysis of at least four concentrations of test compound.
# [4] = test system: NMDA stimulated [3H]-GABA release from cultured mouse cerebral cortex interneurons; test: Inhibition of NMDA stimulated [3H]-GABA release from cultured mouse cerebral cortex interneurons (Test 3); assay type: cell-based; details: inhibits 50% of NMDA induced [3H]-GABA release, 3 μg/ml NMDA, 37° C.
# Text: The NMDA antagonistic properties of the compounds is illustrated by determining their capability to antagonize NMDA stimulated [^3 H]-GABA release from cultured mouse cortex neurons. The NMDA antagonistic activity of the compounds may be shown by determining the IC50 value, which represents the concentration (μM) which inhibits 50% of NMDA induced [^3H]-GABA release.
# Inhibition of NMDA stimulated [^3 H]-GABA release from cultured mouse cerebral cortex interneurons (Test 3)
# Release experiments are performed using the model described by Drejer et al. (Life Sci. 38, 2077 (1986)). To cerebral cortex interneurons cultured in petri dishes (30 mm) are added 100 μg/ml 3-vinyl-GABA one hour before the experiment in order to inhibit degradation of GABA in the neurons. 30 min. before the experiment 5 μCi [^3 H]-GABA added to each culture and after this preloading period the cells are washed twice with HEPES buffered saline (HBS) containing 10 mM HEPES, 135 mM NaCl, 5 mM KCl, 0.6 mM MgSO4, 1.0 mM CaCl2 and 6 mM D-glucose; pH 7 and placed in a superfusion system. This system consists of a peristaltic pump continuously delivering thermostated 37° C. superfusion medium from a reservoir to the top of a slightly tilted petri dish. The cell monolayer at the bottom of the dish is covered with a piece of nylon mesh to facilitate dispersion of medium over the cell layer. The medium is continuously collected from the lower part of the dish and delivered to a fraction collector. Initially, the cells are superfused with HBS for 15 min. (flow rate 2 ml/min.). Then cells are stimulated for 30 sec. every 4 min. by changing the superfusion medium from HBS to a corresponding medium containing NMDA and antagonist according to the following scheme:
# Stimulation no. 1: 3 μg/ml NMDA
# Stimulation no. 2: 3 μg/ml NMDA +0.3 μg/ml antagonist
# Stimulation no. 3: 3 μg/ml NMDA +3.0 μg/ml antagonist
# The release of [^3 H]-GABA in the presence of NMDA is corrected for the mean basal release before and after stimulation. The stimulated release in the presence of antagonist is expressed relative to the stimulated release by NMDA alone and the IC50 value is calculated.
Ki [2],IC50 [3],IC50 [4],SMILES,activity at the glycine site [1]
–,6 µM,–,"O=c1[nH]c2sc3cc(Cl)ccc3c2[nH]c1=O [Example 5, 7-Chloro[1]benzothieno[2,3-b]pyrazine-2,3(1H,4H)-dione]",–
0.018 µM,0.069 µM,–,"O=c1[nH]c2sc3ccc(Br)cc3c2[nH]c1=O [Example 4, 8-Bromo[1]benzothieno[2,3-b]pyrazine-2,3(lH,4H)-dione]",–
–,0.54 µM,–,"O=c1[nH]c2sc3cc(Br)c(F)cc3c2[nH]c1=O [Example 14, 7-Bromo-8-fluoro[1]benzothieno[2,3-b]pyrazine-2,3-(1H,4H)-dione]",–
0.04 µM,0.056 µM,0.011 µM,"O=c1[nH]c2sc3ccc(Cl)cc3c2[nH]c1=O [Example 2, 8-Chloro[1] benzothieno[2,3-b]pyrazine-2,3(1H,4H)-dione]",–
0.008 µM,0.052 µM,0.039 µM,"O=c1[nH]c2sc3ccc(F)cc3c2[nH]c1=O [Example 1, 8-Fluoro[1]benzothieno[2,3-b]pyrazine-2,3(1H,4H)-dione]",–
–,1 µM,0.112 µM,"O=c1[nH]c2sc3ccc(I)cc3c2[nH]c1=O [Example 8, 8-Iodo[1]benzothieno[2,3-b]pyrazine-2,3(1H,4H)-dione]",–

# More lines, now with the values behind:
SMILES,Ki [2],IC50 [3],IC50 [4],activity at the glycine site [1]
"N#Cc1cc2[nH]c(=O)c(=O)[nH]c2cc1[N+](=O)[O-] [CNQX, 6-cyano-7-nitroquinoxaline 2,3-dione]",–,–,–,weak antagonists
"O=c1[nH]c2sc3c(Cl)cccc3c2[nH]c1=O [Example 12, 6-Chloro[1]benzothieno[2,3-b]pyrazine-2,3(lH,4H)-dione]",0.041 µM,0.18 µM,–,–
"O=c1[nH]c2sc3ccccc3c2[nH]c1=O [Example 3, [1]Benzothieno[2,3-b]pyrazine-2,3(1H,4H)-dione]",0.208 µM,0.284 µM,0.085 µM,–
C[C@@H](N)C(=O)O [D-alanine],–,–,–,strong agonist activity
"O=C(O)c1cc(O)c2ccc(Cl)cc2n1 [Example 7-Cl-Kyn, 7-chlorokynurenic acid, reference compound]",0.71 µM,1.4 µM,1.3 µM,quite strong antagonists
"NC1CCN(O)C1=O (centres unmarked) [HA-966, 3-amino-1-hydroxy-2-pyrrolidone, reference compound]",16 µM,13 µM,25 µM,weak antagonists
"O=c1[nH]c2sc3c(Cl)cc(Cl)cc3c2[nH]c1=O [Example 7, 6,8-Dichloro[1]benzothieno[2,3-b]pyrazine-2,3(1H,4H)dione]",–,0.312 µM,0.068 µM,–
N[C@@H]1CONC1=O [D-cycloserine],–,–,–,partial agonists
"O=c1[nH]c2sc3c(F)cccc3c2[nH]c1=O [Example 13, 6-Fluoro[1]benzothieno[2,3-b]pyrazine-2,3(lH,4H)-dione]",–,0.262 µM,–,–
N[C@H](CO)C(=O)O [D-serine],–,–,–,strong agonist activity
"COc1ccc2c(c1)sc1[nH]c(=O)c(=O)[nH]c12 [Example 11, 7-Methoxy[1]benzothieno[2,3-b]pyrazine-2,3(lH,4H)-dione]",–,15 µM,–,–
"COc1cccc2c1sc1[nH]c(=O)c(=O)[nH]c12 [Example 10, 6-Methoxy[1]benzothieno[2,3-b]pyrazine-2,3(lH,4H)-dione]",–,10.8 µM,–,–
"O=c1[nH]c2sc3ccc(C(F)(F)F)cc3c2[nH]c1=O [Example 9, 8-Trifluoromethyl[1]benzothieno[2,3-b]pyrazine-2,3-(1H, 4H)-dione]",–,7 µM,–,–

# Source: patent publication US5182279A, “Benzothienopyrazinedione compounds and their preparation and use” (Novo Nordisk A/S, priority 1990, dated 1993)
